Like-named read-outs stand apart in the source and are kept apart here.

Series [1] relates to CEM cells. Put plainly: CEM cell assay: intrinsic toxicity of test compound in uninfected cells (MTT). Format: cell-based. Here is the method: (§1) The effectiveness of the compounds tested in Part A was also determined in a CEM cell assay. The HIV inhibition assay method of acutely infected cells is an automated tetrazolium based colorimetric assay essentially that reported by Pauwles et al, J. Virol. Methods 20, 309-321 (1988). Assays were performed in 96-well tissue culture plates. CEM cells, a CD4^+ cell line, were grown in RPMI-1640 medium (Gibco) supplemented with a 10% fetal-calf serum and were then treated with polybrene (2 μg/mL). An 80 μL volume of medium containing 1×10^4 cells was dispensed into each well of the tissue culture plate. To each well was added a 100 μL volume of test compound dissolved in tissue culture medium (or medium without test compound as a control) to achieve the desired final concentration and the cells were incubated at 37° C. For 1 hour. A frozen culture of HIV-1 was diluted in culture medium to a concentration of 5×10^4 TCID50 per mL (TCID50=the dose of virus that infects 50% of cells in tissue culture), and a 20 μL volume of the virus sample (containing 1000 TCID50 of virus) was added to wells containing test compound and to wells containing only medium (infected control cells). Several wells received culture medium without virus (uninfected control cells). Likewise, the intrinsic toxicity of the test compound was determined by adding medium without virus to several wells containing test compound. In summary, the tissue culture plates contained the following experiments:
(§2) In experiments 2 and 4, the final concentrations of test compounds were 1, 10, 100 and 500 μg/mL. Either azidothymidine (AZT) or dideoxyinosine (ddI) was included as a positive drug control. […] DMSO was added to all control wells at an appropriate concentration.
(§3) Following the addition of virus, cells were incubated at 37° C. in a humidified, 5% CO2 atmosphere for 7 days. Test compounds could be added on days 0, 2 and 5 if desired. On day 7, post-infection, the cells in each well were resuspended and a 100 μL sample of each cell suspension was removed for assay. A 20 μL volume of a 5 mg/mL solution of 3-(4,5-dimethylthiazol-2-yl)-2,5-diphenyltetrazolium bromide (MTT) was added to each 100 μL cell suspension, and the cells were incubated for 4 hours at […] in a 5% CO2 environment. […] To each sample was added 100 μL of 10% sodium dodecylsulfate in 0.01 N HCl to lyse the cells, and samples were incubated overnight. The absorbance at 590 nm was determined for each sample using a Molecular Devices microplate reader. Absorbance values for each set of wells is compared to assess viral control infection, uninfected control cell response as well as test compound by cytotoxicity and antiviral efficacy.
(§4) The calculated EC^50 (effective concentration 50%, i.e., the concentration at which the inhibitor compound reduces cytopathicity by 50%) and TD^50 (toxic dose 50%, i.e., the concentration at which the inhibitor compound reduces cellular viability by 50%) values for these compounds are also shown in Table 1.

For series [2], the system named is HIV-1. Put plainly: CEM cell assay: HIV inhibition in acutely infected cells (MTT colorimetric). The class given is cell-based. As to conditions: HIV-1 infected CEM cells, 7 days, concentration reducing cytopathicity by 50%, read-out: Antiviral Activity in Cell Culture (EC50). The procedure:
as §1, §2, §3, §4

For series [3], the target named is T1, HIV protease (Human immunodeficiency virus type 1 group M subtype B, UniProt P04585).
T1 construct: HIV protease is diluted in the assay buffer to a final enzyme concentration of 12.3 nanomolar, based on a molecular weight of 10,780
Nature of the series: HIV protease enzyme assay (fluorogenic substrate 2-aminobenzoyl-Ile-Nle-Phe(p-NO2)-Gln-ArgNH2). The class given is biochemical. As to conditions: for inhibition at 10 µM: at a concentration of 10 micromolar. The procedure:
The compounds of the present invention are effective HIV protease inhibitors. […] The calculated IC50 (inhibiting concentration 50%, i.e., the concentration at which the inhibitor compound reduces enzyme activity by 50%) values are shown in Table 1. The enzyme method is described below. The substrate is 2-aminobenzoyl-Ile-Nle-Phe(p-NO2)-Gln-ArgNH2. The positive control is MVT-101 (Miller, M. et al, Science, 246, 1149 (1989)] The assay conditions are as follows:
Assay buffer: 20 mM sodium phosphate, pH 6.4
The above described substrate is dissolved in DMSO, then diluted 10 fold in assay buffer. Final substrate concentration in the assay is 80 μM.
HIV protease is diluted in the assay buffer to a final enzyme concentration of 12.3 nanomolar, based on a molecular weight of 10,780.
The final concentration of DMSO is 14% and the final concentration of glycerol is 18%. The test compound is dissolved in DMSO and diluted in DMSO to 10× the test concentration; 10 μL of the enzyme preparation is added, the materials mixed and then the mixture is incubated at ambient temperature for 15 minutes. The enzyme reaction is initiated by the addition of 40 μL of substrate. The increase in fluorescence is monitored at 4 time points (0, 8, 16 and 24 minutes) at ambient temperature. Each assay is carried out in duplicate wells.

A short description of series [4]: CEM cell assay: intrinsic toxicity of test compound in uninfected cells (MTT). Format: cell-based. As to conditions: human, uninfected CEM cells (CD4+ cell line); CEM cells without virus, 7 days, concentration reducing cellular viability by 50% (TD50). Here is the method:
as §1, §2, §3, §4

Setting [5] is: substrate 80 μM, HIV protease 12.3 nanomolar, pH 6.4, ambient temperature, read-out: Enzyme Inhibition (IC50).
[6] abbreviates: Human immunodeficiency virus 1, CCRF-CEM, 168 h.

Broadly, the IC50 is the concentration that inhibits the measured activity by half. Usually EC50 stands for the concentration giving half of the maximal effect. For the compound “3-Isoquinolinecarboxamide, N-(1,1-dimethylethyl)decahydro-2-[2-hydroxy-3-[[2-methyl-3-(methylsulfonyl)-1-oxopropyl]amino]-4-phenylbutyl]-, [3S-[2[2S*,3R*(R*)], 3α,4aβ,8aβ]] [Example 6]”, the IC50 is 2000 nM in series [1] (CEM cells without virus, 7 days, concentration reducing cellular viability by 50% (TD50), read-out: Cell Toxicity (IC50)) and 2 nM in series [3] (setting [5]). Moreover, the EC50 in series [2] was 52 nM.

What is called inhibition is the change of the read-out against control, counted positive when it falls. Low readings indicate a response near the control, high ones a response far below the control. Regarding `COc1ccc(COC(=O)NC[C@@H](C)C(=O)N[C@@H](Cc2ccccc2)[C@H](O)CN2C[C@H]3CCCC[C@H]3C[C@H]2C(=O)NC(C)(C)C)cc1` (relative stereo) [Example 4, carbamic acid, [3-[[3-[3-[[(1,1-dimethylethyl)-amino]carbonyl]octahydro-2(1H)-isoquinolinyl]-2-hydroxy-1-(phenyl-methyl)propyl]amino]-2-methyl-3-oxopropyl]-,(4-methoxyphenyl)methylester,[3S-[2[1R*(S*),2S*], 3α,4aβ,8aβ]]], in series [3], the inhibition at 10 µM was 3 to 100%.

Consider `C[C@H](CS(C)(=O)=O)C(=O)N[C@@H](Cc1ccccc1)[C@H](O)CN1C[C@H]2CCCC[C@H]2C[C@H]1C(=O)NC(C)(C)C` (relative stereo) [Example 6, 3-Isoquinolinecarboxamide, N-(1,1-dimethylethyl)decahydro-2-[2-hydroxy-3-[[2-methyl-3-(methylsulfonyl)-1-oxopropyl]amino]-4-phenylbutyl]-, [3S-[2[2S*,3R*(R*)], 3α,4aβ,8aβ]]], for which, in series [3], the inhibition at 10 µM was in the range of 3 to 100%.

In turn, `CC(C)(C)NC(=O)[C@@H]1C[C@@H]2CCCC[C@@H]2CN1C[C@@H](O)[C@H](Cc1ccccc1)NC(=O)C[C@H](NC(=O)c1ccc2ccccc2n1)C(N)=O` (relative stereo) [Example 10, butanediamide, N^4-[3-[3-[[(1,1-dimethylethyl)-amino]carbonyl]octahydro-2(1H)-isoquinolinyl]-2-hydroxy-1-(phenyl-methyl)propyl]-2-[(2-quinolinylcarbonyl)amino]-, [3S[2[1R*(R*),2S*], 3α,4aβ,8aβ]]] returned an IC50 at 7 days in series [4] of 5000 nM. Also, the 50% effective concentration (EC50) in series [2] (setting [6]) was 37 nM. In series [3], inhibition was half-maximal at 9 nM (IC50) and the inhibition at 10 µM was 3 to 100%.

`C[C@@H](C(=O)N[C@@H](Cc1ccccc1)[C@H](O)CN1C[C@H]2CCCC[C@H]2C[C@H]1C(=O)NC(C)(C)C)C(C)(C)C(N)=O` (relative stereo) [Example 12, Butanamide, 4-[[3-[3-[[(1,1-dimethylethyl)-amino]carbonyl]octahydro-2 (1H)-isoquinolinyl]-2-hydroxy-1-(phenylmethyl)propyl]amino]-2,2,3-trimethyl-4-oxo-, [3S-[2[1R*(S*),2S*], 3α, 4aβ, 8 aβ]]] showed an IC50 at 7 days in series [4] of 59000 nM. The EC50 in series [2] (setting [6]) came to 98 nM. Besides, in series [3] (setting [5]), the concentration for half-maximal inhibition (IC50) was 9 nM.

On to `C[C@@H](C(=O)N[C@@H](Cc1ccccc1)[C@H](O)CN1C[C@H]2CCCC[C@H]2C[C@H]1C(=O)NC(C)(C)C)C(C)(C)C(=O)O` (relative stereo) [Example 12C, butanoic acid, 4-[[3-[3-[[(1,1-dimethylethyl)amino]carbonyl]octahydro-2(1H)-isoquinolinyl]-2-hydroxy-1-(phenylmethyl)propyl]amino]-2,2,3-trimethyl-4-oxo-, [3S-[2[1R*(S*),2S*], 3α,4aβ, 8aβ]]-], for which it took 50000 nM to reach half-maximal inhibition in series [4] (IC50 at 7 days). The EC50 in series [2] (setting [6]) came out at 184 nM. In addition, in series [3] (setting [5]), the IC50 came out at 23 nM.

For `COc1ccc(COC(=O)NCC(C)C(=O)NC(Cc2ccccc2)C(O)CN2CC3CCCCC3CC2C(=O)NC(C)(C)C)cc1` (stereo not drawn) [Example 4, carbamic acid, [3-[[3-[3-[[(1,1-dimethylethyl)-amino]carbonyl]octahydro-2(1H)-isoquinolinyl]-2-hydroxy-1-(phenyl-methyl)propyl]amino]-2-methyl-3-oxopropyl]-,(4-methoxyphenyl)methylester,[3S-[2[1R*(S*),2S*], 3α,4aβ,8aβ]]], the IC50 in series [1] is 58000 nM; in series [3] (setting [5]), 7 nM. For the same compound, the EC50 in series [2] came out at 42 nM.

In series [3], `C[C@@H](C(=O)N[C@@H](Cc1ccccc1)[C@H](O)CN1C[C@H]2CCCC[C@H]2C[C@H]1C(=O)NC(C)(C)C)C(C)(C)C(N)=O` [Example 12, Butanamide, 4-[[3-[3-[[(1,1-dimethylethyl)-amino]carbonyl]octahydro-2 (1H)-isoquinolinyl]-2-hydroxy-1-(phenylmethyl)propyl]amino]-2,2,3-trimethyl-4-oxo-, [3S-[2[1R*(S*),2S*], 3α, 4aβ, 8 aβ]]] yielded an inhibition at 10 µM of 3 to 100%.

With `C[C@@H](C(=O)N[C@@H](Cc1ccccc1)[C@H](O)CN1C[C@H]2CCCC[C@H]2C[C@H]1C(=O)NC(C)(C)C)C(C)(C)C(=O)O` [Example 12C, butanoic acid, 4-[[3-[3-[[(1,1-dimethylethyl)amino]carbonyl]octahydro-2(1H)-isoquinolinyl]-2-hydroxy-1-(phenylmethyl)propyl]amino]-2,2,3-trimethyl-4-oxo-, [3S-[2[1R*(S*),2S*], 3α,4aβ, 8aβ]]-], in series [3], the inhibition at 10 µM is 3 to 100%.
